Measurements as given in EP1769804B1, “hPTH(1-34) for use in preventing or reducing the incidence or severity of vertebral and / or non vertebral fracture in a male human” (priority 1998, dated 2012).

Experiments:
rodents = experiment: In vivo mechanistic studies in rodents; conditions: after the first dose
post-menopausal women = experiment: Clinical trial: BMC, BMD and bone area by dual energy absorptiometry (DEXA); type: in vivo, Humans
Procedure: The effect of PTH on bone mineral content (BMC), bone mineral density (BMD), and bone area were determined by dual energy absorptiometry (DEXA), and the results are reported in Tables 12-14. PTH administration caused apparent increases in BMC at the patient's lumbar spine, femur and hip, wrist, and throughout the patient's whole body (Table 12). Treatment with PTH caused significant increases in the patient's BMD at the lumbar spine, femur and hip (Table 13). The increases at the lumbar spine, femur and hip were statistically significant with p<0.001 (Table 13). […] The increases were statistically significant for the lumbar spine and hip neck (Table 14).

[1] = test system: ovariectomized cynomolgus primates; experiment: Serum and urine measures in the primate study; type: in vivo, Macaca fascicularis
From the text: All animals were euthanized after 18 months.

[2] = test system: L-5 vertebra from cynomolgus monkeys; experiment: QCT and 3D finite element modeling of L-5 vertebra; type: in vivo; conditions: for low BMD, percentage of L5 vertebral volume: 0-300 mg/cc; for low BMD, percentage of L5 vertebral volume / medium BMD, percentage of L5 vertebral volume / high BMD, percentage of L5 vertebral volume / cortical BMD, percentage of L5 vertebral volume: mean±SEM; for medium BMD, percentage of L5 vertebral volume: 300-700 mg/cc; for high BMD, percentage of L5 vertebral volume: 700-1000 mg/cc; for cortical BMD, percentage of L5 vertebral volume: >1000 mg/cc; for vertebral effective strain: finite element model, distributed load of 100 N
Procedure: These studies determined 3D finite element modeling data on vertebra from monkeys of the study dosed with PTH for 18 months. Excised L-5 vertebra in 50% ethanol/saline from the ovariectomized (n=7) and PTH (n=7) groups were serially scanned in 500 µm steps by quantitative computed tomography (QCT, Norland, Ft. Atkinson, WI), using 70x70 µm pixels. Each of the 500 µm cross-sections was analyzed for volumetric bone mineral density (BMD, mg/cc), bone mineral content (BMC, mg), cross-sectional area (X-Area), cancellous bone volume (BV/TV), trabecular thickness (Tb.Th), and connectivity (node density, strut analysis). Pixels in each serial scan were averaged to create 490x490x500 µm voxels. The serial scans were then stacked and a triangular surface mesh generated for each bone using the "marching cubes" algorithm (see e.g. Lorensen and Cline 1987 "Marching cubes, a high resolution 3D surface construction algorithm." Computer Graphics 21, 163-169). A smoothed version of each surface mesh was then used to generate a tetrahedral mesh for 3D finite-element modeling.
Young's modulus for each tetrahedral element was derived from the original voxel densities and material properties from a beam of cortical bone milled from the femoral diaphysis of the monkeys. Each tetrahedral mesh was rotated so that the bottom surface of each vertebra was aligned with a plane. Linear elastic stress analysis was then performed for each L-5 model in which a distributed load of 100 N was applied to the top surface of the centrum, perpendicular to the bottom plane while the bottom surface was fixed in the direction of loading. The resulting axial strain contours were evaluated, as were the BMD distributions, and compared between PTH and ovariectomized. At this resolution, the density of each voxel is dependent on the extent to which each voxel is filled with bone as opposed to soft tissue.

[3] = compared to ovariectomized, 24 hours after injection
[4] = PTH-W, after withdrawal of PTH for 6 months
[5] = PTH for 18 months compared to ovariectomized

Substance: teriparatide [rhPTH(1-34)]
- time to detectable increase in bone forming surfaces (rodents): ≤ 24 h
- bone area, endpoint % change (SD) from baseline, Femur/Hip Intertrochanter (post-menopausal women; PTH-20): 1.01 (4.99) %
- bone area, endpoint % change (SD) from baseline, Femur/Hip Neck (post-menopausal women; PTH-20): 0.27 (4.91) %
- bone area, endpoint % change (SD) from baseline, Femur/Hip Total (post-menopausal women; PTH-20): 0.84 (3.16) %
- bone area, endpoint % change (SD) from baseline, Femur/Hip Trochanter (post-menopausal women; PTH-20): 1.99 (12.16) %
- bone area, endpoint % change (SD) from baseline, Femur/Hip Ward's triangle (post-menopausal women; PTH-20): 1.13 (7.34) %
- bone area, endpoint % change (SD) from baseline, Lumbar spine (post-menopausal women; PTH-20): 2.52 (3.52) %
- bone area, endpoint % change (SD) from baseline, Wrist 1/3 radius (post-menopausal women; PTH-20): 0.52 (3.40) %
- bone area, endpoint % change (SD) from baseline, Wrist Ultradistal (post-menopausal women; PTH-20): -0.25 (6.00) %
- bone mineral content, endpoint % change (SD) from baseline, Femur/Hip Intertrochanter (post-menopausal women; PTH-20): 3.59 (7.32) %
- bone mineral content, endpoint % change (SD) from baseline, Femur/Hip Neck (post-menopausal women; PTH-20): 2.99 (7.26) %
- bone mineral content, endpoint % change (SD) from baseline, Femur/Hip Total (post-menopausal women; PTH-20): 3.50 (6.26) %
- bone mineral content, endpoint % change (SD) from baseline, Femur/Hip Trochanter (post-menopausal women; PTH-20): 5.68 (15.58) %
- bone mineral content, endpoint % change (SD) from baseline, Femur/Hip Ward's triangle (post-menopausal women; PTH-20): 5.36 (14.78) %
- bone mineral content, endpoint % change (SD) from baseline, Lumbar spine (post-menopausal women; PTH-20): 11.85 (8.83) %
- bone mineral content, endpoint % change (SD) from baseline, Whole body (post-menopausal women; PTH-20): 1.30 (4.48) %
- bone mineral content, endpoint % change (SD) from baseline, Wrist 1/3 radius (post-menopausal women; PTH-20): -1.37 (4.51) %
- bone mineral content, endpoint % change (SD) from baseline, Wrist Ultradistal (post-menopausal women; PTH-20): -0.25 (6.53) %
- bone mineral density, endpoint % change (SD) from baseline, Femur/Hip Intertrochanter (post-menopausal women; PTH-20): 2.62 (5.52) %
- bone mineral density, endpoint % change (SD) from baseline, Femur/Hip Neck (post-menopausal women; PTH-20): 2.79 (5.72) %
- bone mineral density, endpoint % change (SD) from baseline, Femur/Hip Total (post-menopausal women; PTH-20): 2.58 (4.88) %
- bone mineral density, endpoint % change (SD) from baseline, Femur/Hip Trochanter (post-menopausal women; PTH-20): 3.50 (6.81) %
- bone mineral density, endpoint % change (SD) from baseline, Femur/Hip Ward's triangle (post-menopausal women; PTH-20): 4.19 (11.93) %
- bone mineral density, endpoint % change (SD) from baseline, Lumbar spine (post-menopausal women; PTH-20): 9.70 (7.41) %
- bone mineral density, endpoint % change (SD) from baseline, Wrist 1/3 radius (post-menopausal women; PTH-20): -1.94 (4.07) %
- bone mineral density, endpoint % change (SD) from baseline, Wrist Ultradistal (post-menopausal women; PTH-20): -0.05 (7.14) %
- bone area, endpoint % change (SD) from baseline, Femur/Hip Intertrochanter (post-menopausal women; PTH-40): 1.01 (4.89) %
- bone area, endpoint % change (SD) from baseline, Femur/Hip Neck (post-menopausal women; PTH-40): 0.81 (5.56) %
- bone area, endpoint % change (SD) from baseline, Femur/Hip Total (post-menopausal women; PTH-40): 1.05 (2.98) %
- bone area, endpoint % change (SD) from baseline, Femur/Hip Trochanter (post-menopausal women; PTH-40): 1.92 (11.30) %
- bone area, endpoint % change (SD) from baseline, Femur/Hip Ward's triangle (post-menopausal women; PTH-40): 0.99 (8.06) %
- bone area, endpoint % change (SD) from baseline, Lumbar spine (post-menopausal women; PTH-40): 3.34 (3.72) %
- bone area, endpoint % change (SD) from baseline, Wrist 1/3 radius (post-menopausal women; PTH-40): 0.01 (4.42) %
- bone area, endpoint % change (SD) from baseline, Wrist Ultradistal (post-menopausal women; PTH-40): -0.39 (4.80) %
- bone mineral content, endpoint % change (SD) from baseline, Femur/Hip Intertrochanter (post-menopausal women; PTH-40): 4.99 (7.79) %
- bone mineral content, endpoint % change (SD) from baseline, Femur/Hip Neck (post-menopausal women; PTH-40): 5.80 (8.71) %
- bone mineral content, endpoint % change (SD) from baseline, Femur/Hip Total (post-menopausal women; PTH-40): 4.78 (6.70) %
- bone mineral content, endpoint % change (SD) from baseline, Femur/Hip Trochanter (post-menopausal women; PTH-40): 6.53 (15.33) %
- bone mineral content, endpoint % change (SD) from baseline, Femur/Hip Ward's triangle (post-menopausal women; PTH-40): 8.86 (17.02) %
- bone mineral content, endpoint % change (SD) from baseline, Lumbar spine (post-menopausal women; PTH-40): 16.62 (11.1) %
- bone mineral content, endpoint % change (SD) from baseline, Whole body (post-menopausal women; PTH-40): 2.28 (5.44) %
- bone mineral content, endpoint % change (SD) from baseline, Wrist 1/3 radius (post-menopausal women; PTH-40): -3.04 (6.09) %
- bone mineral content, endpoint % change (SD) from baseline, Wrist Ultradistal (post-menopausal women; PTH-40): -1.88 (7.97) %
- bone mineral density, endpoint % change (SD) from baseline, Femur/Hip Intertrochanter (post-menopausal women; PTH-40): 3.98 (5.96) %
- bone mineral density, endpoint % change (SD) from baseline, Femur/Hip Neck (post-menopausal women; PTH-40): 5.06 (6.73) %
- bone mineral density, endpoint % change (SD) from baseline, Femur/Hip Total (post-menopausal women; PTH-40): 3.60 (5.42) %
- bone mineral density, endpoint % change (SD) from baseline, Femur/Hip Trochanter (post-menopausal women; PTH-40): 4.40 (7.45) %
- bone mineral density, endpoint % change (SD) from baseline, Femur/Hip Ward's triangle (post-menopausal women; PTH-40): 7.85 (13.24) %
- bone mineral density, endpoint % change (SD) from baseline, Lumbar spine (post-menopausal women; PTH-40): 13.7 (9.69) %
- bone mineral density, endpoint % change (SD) from baseline, Wrist 1/3 radius (post-menopausal women; PTH-40): -3.17 (4.62) %
- bone mineral density, endpoint % change (SD) from baseline, Wrist Ultradistal (post-menopausal women; PTH-40): -1.76 (7.20) %
- serum total alkaline phosphatase (ALP) and osteocalcin ([1]; bone formation markers): restored levels back to sham values
- 1,25-dihydroxyvitamin D [1, 3]: higher
- endogenous PTH [1, 3]: lower
- serum phosphate [1, 3]: lower
- urinary cAMP [1, 3]: higher
- Urinary C-telopeptide (CrossLaps) excretion ([1]; marker of bone resorption, compared to ovariectomized controls): not altered
- low BMD, percentage of L5 vertebral volume ([2]; PTH for 18 months): 17.7±1.6 %
- low BMD, percentage of L5 vertebral volume [2, 4]: 22.4±1.3 %
- medium BMD, percentage of L5 vertebral volume ([2]; PTH for 18 months): 58.9±1.9 %
- medium BMD, percentage of L5 vertebral volume [2, 4]: 49.7±1.2%
- high BMD, percentage of L5 vertebral volume ([2]; PTH for 18 months): 22.8±2.7%
- high BMD, percentage of L5 vertebral volume [2, 4]: 27.0±1.6 %
- cortical BMD, percentage of L5 vertebral volume ([2]; PTH for 18 months): 0.6±0.3%
- cortical BMD, percentage of L5 vertebral volume [2, 4]: 0.8±0.2%
- BMC at the midlevel of the L5 vertebra ([2]; PTH for 18 months): 47.4 ± 1.5 mg
- greater Tb.N, centrum [2, 5]: 37%
- greater node density (node/tissue volume) [2, 5]: 140%
- greater node-to-node struts [2, 5]: 286%
- increase in BMC, middle 500 µm slice of L-5 [2, 5]: 27%
- increase in BMD, middle 500 µm slice of L-5 [2, 5]: 21%
- increase in BV/TV, centrum [2, 5]: 73%
- increase in Tb.Th, centrum [2, 5]: 30%
- reduction of average mechanical strain in the vertebra ([2]; PTH treatment, vs OVX): 36%
- BMC at the midlevel of the L5 vertebra [2, 4]: 44.2 ± 1.2 mg
- average mechanical strain in the vertebra below OVX ([2]; after withdrawal of PTH): 23%
- vertebral effective strain ([2]; PTH for 18 months): 447±36 ustrain
- vertebral effective strain [2, 4]: 539±34 ustrain
